Calls of active or inactive are those of the source.
Assays:
[1] = molecular target: T1, Voltage-gated N-type calcium channel alpha-1B subunit/Amyloid beta A4 precursor protein-binding family A member 1 (Homo sapiens, UniProt Q00975+Q02410); format: protein assay
[2] = molecular target: NS3 (Hepatitis C virus, UniProt A3EZJ3); test: PubChem AID 2173; parameters: species or system Hepacivirus hominis
[3] = molecular target: T1, Voltage-gated N-type calcium channel alpha-1B subunit/Amyloid beta A4 precursor protein-binding family A member 1; format: protein assay; remark: listed apart in the source
[4] = molecular target: Beta-galactosidase (Escherichia coli, UniProt Q8VNN2); test: beta-galactosidase enzyme inhibitors and activators, dose response, artefact control for CCR6 antagonist project, biochemical, E. coli enzyme, set 3 (AID 504712); format: functional
Sequence of Beta-galactosidase (Q8VNN2 whole entry): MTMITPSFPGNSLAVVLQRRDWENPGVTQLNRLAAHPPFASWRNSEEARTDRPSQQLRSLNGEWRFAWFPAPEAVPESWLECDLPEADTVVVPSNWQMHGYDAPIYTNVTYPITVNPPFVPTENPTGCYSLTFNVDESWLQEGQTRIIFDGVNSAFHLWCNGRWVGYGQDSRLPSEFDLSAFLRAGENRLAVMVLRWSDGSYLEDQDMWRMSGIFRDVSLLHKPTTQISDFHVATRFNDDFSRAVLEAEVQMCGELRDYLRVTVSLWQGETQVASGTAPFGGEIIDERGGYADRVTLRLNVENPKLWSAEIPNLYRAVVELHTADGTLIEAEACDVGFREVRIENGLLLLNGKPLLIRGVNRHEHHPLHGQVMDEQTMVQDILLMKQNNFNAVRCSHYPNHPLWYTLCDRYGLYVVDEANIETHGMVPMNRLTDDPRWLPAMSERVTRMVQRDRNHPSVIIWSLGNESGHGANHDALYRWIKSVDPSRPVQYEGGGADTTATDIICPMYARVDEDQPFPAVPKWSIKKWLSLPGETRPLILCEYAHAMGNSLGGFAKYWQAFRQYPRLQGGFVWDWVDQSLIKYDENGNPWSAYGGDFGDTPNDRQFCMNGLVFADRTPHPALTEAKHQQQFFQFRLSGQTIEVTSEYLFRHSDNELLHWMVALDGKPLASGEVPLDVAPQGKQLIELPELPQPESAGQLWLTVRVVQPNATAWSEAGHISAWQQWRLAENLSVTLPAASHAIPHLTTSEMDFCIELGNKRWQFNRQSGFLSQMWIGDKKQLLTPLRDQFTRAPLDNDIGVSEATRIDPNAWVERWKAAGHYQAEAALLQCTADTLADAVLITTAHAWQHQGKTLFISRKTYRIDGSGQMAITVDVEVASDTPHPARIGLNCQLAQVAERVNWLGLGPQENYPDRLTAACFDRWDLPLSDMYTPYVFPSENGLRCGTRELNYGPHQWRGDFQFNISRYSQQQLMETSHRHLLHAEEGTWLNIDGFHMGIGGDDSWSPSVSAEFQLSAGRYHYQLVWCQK

[5] = molecular target: T2, Hexokinase HKDC1 (Homo sapiens, UniProt Q2TB90); test: HKDC1 hexokinase inhibitors, dose response, biochemical, W721R variant (AID 504729); format: functional
T2 sequence (Q2TB90 whole entry): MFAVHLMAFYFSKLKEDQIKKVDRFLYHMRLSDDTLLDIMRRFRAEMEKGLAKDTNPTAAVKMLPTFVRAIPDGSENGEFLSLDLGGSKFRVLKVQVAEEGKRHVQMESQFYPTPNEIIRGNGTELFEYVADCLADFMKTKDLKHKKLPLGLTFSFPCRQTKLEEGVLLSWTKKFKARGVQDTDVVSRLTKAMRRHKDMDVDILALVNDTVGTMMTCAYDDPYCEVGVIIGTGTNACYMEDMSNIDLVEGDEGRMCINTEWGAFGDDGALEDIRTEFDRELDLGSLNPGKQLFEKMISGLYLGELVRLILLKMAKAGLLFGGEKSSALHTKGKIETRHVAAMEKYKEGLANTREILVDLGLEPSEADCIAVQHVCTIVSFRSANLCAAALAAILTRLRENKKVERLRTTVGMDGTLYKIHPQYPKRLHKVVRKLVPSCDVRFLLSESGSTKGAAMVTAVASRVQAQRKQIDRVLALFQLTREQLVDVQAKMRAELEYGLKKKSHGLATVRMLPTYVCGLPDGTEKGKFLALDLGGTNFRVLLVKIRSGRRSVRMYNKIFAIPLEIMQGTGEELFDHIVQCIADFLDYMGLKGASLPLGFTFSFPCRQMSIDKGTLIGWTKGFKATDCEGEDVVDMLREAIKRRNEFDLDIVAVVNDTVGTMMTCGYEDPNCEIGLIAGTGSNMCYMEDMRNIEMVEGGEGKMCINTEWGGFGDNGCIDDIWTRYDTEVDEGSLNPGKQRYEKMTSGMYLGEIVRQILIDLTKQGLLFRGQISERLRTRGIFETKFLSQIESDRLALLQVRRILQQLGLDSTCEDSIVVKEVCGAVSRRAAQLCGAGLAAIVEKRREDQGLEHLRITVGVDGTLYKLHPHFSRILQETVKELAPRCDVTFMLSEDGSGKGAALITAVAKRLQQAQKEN

[6] = molecular target: T3, Lysine-specific demethylase 4C (Homo sapiens, UniProt Q9H3R0); test: GASC-1 (JMJD2C) histone demethylase inhibitors, dose response, biochemical, DELFIA europium, cherry-picked samples (AID 488835); format: functional
T3 sequence (Q9H3R0 whole entry): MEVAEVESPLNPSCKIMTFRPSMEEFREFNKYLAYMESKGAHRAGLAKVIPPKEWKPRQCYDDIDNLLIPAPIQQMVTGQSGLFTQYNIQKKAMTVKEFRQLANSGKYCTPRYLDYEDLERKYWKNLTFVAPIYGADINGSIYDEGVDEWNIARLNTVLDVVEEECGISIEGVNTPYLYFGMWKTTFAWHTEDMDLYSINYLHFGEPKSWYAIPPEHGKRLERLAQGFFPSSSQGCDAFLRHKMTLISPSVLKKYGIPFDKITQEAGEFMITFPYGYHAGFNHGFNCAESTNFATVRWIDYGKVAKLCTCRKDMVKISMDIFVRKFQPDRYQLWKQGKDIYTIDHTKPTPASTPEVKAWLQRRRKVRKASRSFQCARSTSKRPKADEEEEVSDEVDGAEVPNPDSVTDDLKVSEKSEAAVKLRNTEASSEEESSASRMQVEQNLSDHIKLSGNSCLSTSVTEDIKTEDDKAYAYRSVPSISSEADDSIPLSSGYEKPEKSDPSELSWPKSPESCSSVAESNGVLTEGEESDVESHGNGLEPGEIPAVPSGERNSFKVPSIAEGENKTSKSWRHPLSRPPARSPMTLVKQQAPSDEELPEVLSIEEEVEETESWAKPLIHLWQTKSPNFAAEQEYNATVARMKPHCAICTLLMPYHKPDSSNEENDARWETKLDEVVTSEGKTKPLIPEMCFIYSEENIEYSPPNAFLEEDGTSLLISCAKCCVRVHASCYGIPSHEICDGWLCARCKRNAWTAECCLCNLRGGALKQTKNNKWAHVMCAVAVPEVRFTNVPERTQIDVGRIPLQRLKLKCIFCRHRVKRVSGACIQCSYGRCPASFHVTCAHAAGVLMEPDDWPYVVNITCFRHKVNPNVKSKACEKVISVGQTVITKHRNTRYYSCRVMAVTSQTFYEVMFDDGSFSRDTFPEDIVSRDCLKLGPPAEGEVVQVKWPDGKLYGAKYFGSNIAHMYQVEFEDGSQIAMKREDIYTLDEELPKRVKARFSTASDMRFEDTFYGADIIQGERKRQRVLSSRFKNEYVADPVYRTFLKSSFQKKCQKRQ

[7] = tested on: Vero; test: Vero cell cytotoxicity, cytotoxicity control for flavivirus capping enzyme inhibitors (AID 588742); format: functional; conditions: Chlorocebus sabaeus
[8] = molecular target: Genome polyprotein (dengue virus type 2, UniProt P29990); test: Dengue-2 NS5 methyltransferase inhibitors, primary screen, biochemical, confirmation dose response (AID 588689); format: functional
[9] = molecular target: DNA dC->dU-editing enzyme APOBEC-3A (Homo sapiens, UniProt P31941); test: APOBEC3A DNA deaminase inhibitors, dose response, biochemical (AID 504722); format: functional
Sequence of DNA dC->dU-editing enzyme APOBEC-3A (P31941 whole entry): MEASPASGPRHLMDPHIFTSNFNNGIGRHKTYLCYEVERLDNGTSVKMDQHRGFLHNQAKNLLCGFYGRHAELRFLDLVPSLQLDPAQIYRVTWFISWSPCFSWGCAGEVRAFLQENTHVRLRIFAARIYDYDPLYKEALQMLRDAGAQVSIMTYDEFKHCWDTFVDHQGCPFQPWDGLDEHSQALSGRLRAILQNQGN

[10] = molecular target: DNA dC->dU-editing enzyme APOBEC-3G (Homo sapiens, UniProt Q9HC16); test: Dose Response confirmation of small molecule APOBEC3G DNA Deaminase Inhibitors via a fluorescence-based single-stranded DNA deaminase assay. [Related pubchem assays (depositor defined):AID493012, AID493028]; format: functional
Sequence of DNA dC->dU-editing enzyme APOBEC-3G (Q9HC16 whole entry): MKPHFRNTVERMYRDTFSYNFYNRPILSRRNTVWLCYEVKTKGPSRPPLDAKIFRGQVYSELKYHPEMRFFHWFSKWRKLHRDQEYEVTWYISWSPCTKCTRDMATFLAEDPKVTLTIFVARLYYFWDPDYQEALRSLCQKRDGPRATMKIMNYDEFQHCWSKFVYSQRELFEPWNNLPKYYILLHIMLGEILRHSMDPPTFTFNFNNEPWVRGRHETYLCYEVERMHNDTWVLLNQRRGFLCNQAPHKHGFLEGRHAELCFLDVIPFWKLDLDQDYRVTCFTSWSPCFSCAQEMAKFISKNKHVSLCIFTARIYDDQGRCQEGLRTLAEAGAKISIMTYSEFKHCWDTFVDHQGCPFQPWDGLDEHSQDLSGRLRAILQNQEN

[11] = molecular target: FAD-linked sulfhydryl oxidase ALR (Homo sapiens, UniProt P55789); test: inhibitors of human ALR sulfhydryl oxidase, dose response, biochemical, H2O2 detection, luminescence, cherry-pick (AID 493248)
[12] = molecular target: Hexokinase (Trypanosoma brucei, UniProt Q38C41); test: Confirmation assay for inhibitors of Trypanosoma brucei hexokinase 1-Analogue-first series. [Related pubchem assays (depositor defined):AID1430, AID1632, AID2516, AID2560, AID2579, AID2600, AID449725, AID492951]; format: functional
Sequence of Hexokinase (Q38C41 whole entry): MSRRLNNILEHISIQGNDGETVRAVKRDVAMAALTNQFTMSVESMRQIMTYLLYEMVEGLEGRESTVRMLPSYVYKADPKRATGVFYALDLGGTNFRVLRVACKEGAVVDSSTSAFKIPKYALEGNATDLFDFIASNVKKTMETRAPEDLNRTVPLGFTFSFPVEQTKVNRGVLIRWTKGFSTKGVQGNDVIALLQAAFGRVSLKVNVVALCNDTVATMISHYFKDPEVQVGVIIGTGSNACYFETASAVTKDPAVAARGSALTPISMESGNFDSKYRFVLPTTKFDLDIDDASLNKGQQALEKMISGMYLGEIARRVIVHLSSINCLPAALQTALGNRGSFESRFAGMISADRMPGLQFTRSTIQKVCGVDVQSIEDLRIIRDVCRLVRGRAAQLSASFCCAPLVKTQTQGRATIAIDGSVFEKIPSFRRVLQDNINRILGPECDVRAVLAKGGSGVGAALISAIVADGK

[13] = molecular target: T4, Estrogen receptor (Homo sapiens, UniProt P03372);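 further: potency for inhibiting coactivator peptide recruitment to the receptor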
T4 sequence (P03372 whole entry): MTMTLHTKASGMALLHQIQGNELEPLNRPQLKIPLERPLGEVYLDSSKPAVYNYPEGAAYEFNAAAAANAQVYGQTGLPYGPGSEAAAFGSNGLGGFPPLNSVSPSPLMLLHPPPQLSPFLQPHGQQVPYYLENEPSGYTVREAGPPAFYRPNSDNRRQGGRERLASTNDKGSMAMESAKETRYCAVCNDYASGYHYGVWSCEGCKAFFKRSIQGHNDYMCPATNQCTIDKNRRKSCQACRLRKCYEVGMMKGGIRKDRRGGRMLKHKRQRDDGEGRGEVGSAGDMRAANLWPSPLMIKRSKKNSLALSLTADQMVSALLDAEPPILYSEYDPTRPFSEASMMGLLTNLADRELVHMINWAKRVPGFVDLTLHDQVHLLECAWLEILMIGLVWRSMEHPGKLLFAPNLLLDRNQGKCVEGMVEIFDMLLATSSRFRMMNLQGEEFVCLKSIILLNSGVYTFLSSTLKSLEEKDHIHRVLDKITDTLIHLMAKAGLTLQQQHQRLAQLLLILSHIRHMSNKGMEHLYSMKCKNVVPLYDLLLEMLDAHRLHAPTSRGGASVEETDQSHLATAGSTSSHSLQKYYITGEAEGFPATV

[14] = molecular target: T5, Estrogen receptor beta (Homo sapiens, UniProt Q92731);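 further: recombinant ER-beta bound to coactivator SRC1 peptide in presence of estradiol agonist; inhibitors block coactivator peptide binding and lower the FRET signal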
T5 sequence (Q92731 whole entry): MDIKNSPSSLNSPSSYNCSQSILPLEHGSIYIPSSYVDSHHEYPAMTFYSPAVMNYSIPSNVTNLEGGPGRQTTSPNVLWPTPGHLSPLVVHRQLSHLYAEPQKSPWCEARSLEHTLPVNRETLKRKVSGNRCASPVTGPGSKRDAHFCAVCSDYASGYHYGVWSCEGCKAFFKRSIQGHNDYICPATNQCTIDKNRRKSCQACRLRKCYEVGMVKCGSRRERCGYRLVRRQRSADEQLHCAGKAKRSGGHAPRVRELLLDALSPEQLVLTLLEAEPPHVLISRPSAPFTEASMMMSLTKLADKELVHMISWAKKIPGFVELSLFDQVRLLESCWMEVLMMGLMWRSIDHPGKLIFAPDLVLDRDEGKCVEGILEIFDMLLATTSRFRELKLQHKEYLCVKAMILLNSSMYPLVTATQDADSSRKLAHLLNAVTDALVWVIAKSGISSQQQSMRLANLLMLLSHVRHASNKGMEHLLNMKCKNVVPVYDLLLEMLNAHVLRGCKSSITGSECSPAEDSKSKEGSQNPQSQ

[15] = molecular target: T5, Estrogen receptor beta; test: ERβ–SRC-3 coactivator interaction inhibitors, confirmation, orthogonal assay, biochemical, ELISA, streptavidin-HRP readout (AID 1060)
[16] = molecular target: Induced myeloid leukemia cell differentiation protein Mcl-1 (Homo sapiens, UniProt Q07820); format: functional
[17] = molecular target: Eukaryotic translation initiation factor 4H (Homo sapiens, UniProt Q15056); test: eIF4H inhibition in translation initiation, SAR follow-up (AID 435011); format: functional
[18] = molecular target: Polyadenylate-binding protein 1 (Homo sapiens, UniProt P11940); test: PABP inhibition in translation initiation, SAR follow-up (AID 435018); format: functional
Sequence of Polyadenylate-binding protein 1 (P11940 whole entry, the tested form may be a part): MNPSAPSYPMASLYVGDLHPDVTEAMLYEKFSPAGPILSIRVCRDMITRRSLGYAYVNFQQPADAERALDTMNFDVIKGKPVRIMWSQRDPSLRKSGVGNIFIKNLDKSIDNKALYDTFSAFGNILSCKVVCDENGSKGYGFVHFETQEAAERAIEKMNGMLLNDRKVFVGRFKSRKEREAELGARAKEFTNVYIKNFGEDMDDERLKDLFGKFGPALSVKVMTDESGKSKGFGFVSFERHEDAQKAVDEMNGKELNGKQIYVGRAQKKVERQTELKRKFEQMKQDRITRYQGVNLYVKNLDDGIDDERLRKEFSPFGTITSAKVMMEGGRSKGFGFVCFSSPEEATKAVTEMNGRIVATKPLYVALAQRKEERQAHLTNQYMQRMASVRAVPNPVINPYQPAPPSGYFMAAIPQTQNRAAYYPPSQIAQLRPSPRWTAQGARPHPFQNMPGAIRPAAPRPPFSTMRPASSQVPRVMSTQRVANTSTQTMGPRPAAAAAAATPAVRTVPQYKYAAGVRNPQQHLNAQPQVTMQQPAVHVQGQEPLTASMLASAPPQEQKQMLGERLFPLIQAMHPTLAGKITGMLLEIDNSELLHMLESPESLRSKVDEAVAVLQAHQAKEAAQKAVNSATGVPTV

[19] = molecular target: T6, Carboxy-terminal domain RNA polymerase II polypeptide A small phosphatase 1 (Homo sapiens, UniProt Q9GZU7); test: inhibitors of CTDSP1, concentration-response testing, biochemical assay, absorbance-based, actives from ultra-high-throughput screening (AID 540297); format: functional
T6 sequence (Q9GZU7 whole entry): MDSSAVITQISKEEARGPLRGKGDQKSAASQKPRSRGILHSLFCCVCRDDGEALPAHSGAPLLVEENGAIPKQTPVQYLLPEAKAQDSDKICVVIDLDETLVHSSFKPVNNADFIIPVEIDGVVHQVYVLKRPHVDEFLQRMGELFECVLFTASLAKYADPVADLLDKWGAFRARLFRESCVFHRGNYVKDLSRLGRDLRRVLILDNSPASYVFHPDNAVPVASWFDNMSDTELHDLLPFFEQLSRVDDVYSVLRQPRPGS

[20] = molecular target: DNA (cytosine-5)-methyltransferase 1 (Homo sapiens, UniProt P26358); test: DNMT1 methyltransferase inhibitors, confirmation, biochemical, fluorescent molecular beacon (AID 602386); format: functional
[21] = molecular target: T7, Mannose-6-phosphate isomerase (Homo sapiens, UniProt P34949); test: inhibitors of human PMI, primary screen, biochemical, fluorescence intensity, coupled assay (AID 1209)
T7 sequence (P34949 whole entry): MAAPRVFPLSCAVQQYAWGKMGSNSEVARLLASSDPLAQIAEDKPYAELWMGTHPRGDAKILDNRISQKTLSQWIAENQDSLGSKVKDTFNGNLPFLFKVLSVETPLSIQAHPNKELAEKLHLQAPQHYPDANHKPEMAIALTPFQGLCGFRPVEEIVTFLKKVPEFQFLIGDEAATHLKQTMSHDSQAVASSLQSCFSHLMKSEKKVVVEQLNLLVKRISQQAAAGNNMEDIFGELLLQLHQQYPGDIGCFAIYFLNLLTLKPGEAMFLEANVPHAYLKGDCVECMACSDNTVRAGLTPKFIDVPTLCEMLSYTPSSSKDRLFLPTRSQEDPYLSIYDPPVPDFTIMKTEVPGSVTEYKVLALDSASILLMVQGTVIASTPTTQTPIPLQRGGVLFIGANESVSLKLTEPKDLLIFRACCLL

[22] = molecular target: T7, Mannose-6-phosphate isomerase; test: human PMI inhibitors, high substrate, primary screen, biochemical, fluorescence intensity, high mannose 6-phosphate (AID 1220)
[23] = molecular target: G-protein coupled receptor 55 (Homo sapiens, UniProt Q9Y2T6); test: GPR55 antagonists blocking LPI-driven arrestin recruitment, primary screen, imaging, U2OS, beta-arrestin-GFP, LPI agonist (AID 2013); format: functional;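 further: antagonist potency measured as reduced agonist-driven arrestin aggregation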
Sequence of G-protein coupled receptor 55 (Q9Y2T6 whole entry): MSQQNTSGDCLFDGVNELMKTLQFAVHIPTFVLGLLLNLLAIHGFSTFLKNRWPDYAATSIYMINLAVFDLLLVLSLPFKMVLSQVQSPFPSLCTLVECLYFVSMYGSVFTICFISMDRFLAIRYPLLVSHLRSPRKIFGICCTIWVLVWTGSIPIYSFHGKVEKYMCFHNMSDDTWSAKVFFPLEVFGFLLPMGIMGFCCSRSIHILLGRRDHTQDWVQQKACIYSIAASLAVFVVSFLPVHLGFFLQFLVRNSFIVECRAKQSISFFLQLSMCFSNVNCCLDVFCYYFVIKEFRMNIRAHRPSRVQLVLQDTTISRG

[24] = microbe, parasite or virus in culture; format: functional; conditions: Mycobacterium tuberculosis
[25] = molecular target: Melanocortin receptor 4 (Homo sapiens, UniProt P32245); format: functional, cell-based;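 further: Cell-based assay with luminescence read-out, confirmatory dose-response testing for agonist activity of biased ligands at MC4R; human U2OS cells with tagged receptor and beta-arrestin; potency of agonists that increase receptor coupling to beta-arrestin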
Sequence of Melanocortin receptor 4 (P32245 whole entry, the tested form may be a part): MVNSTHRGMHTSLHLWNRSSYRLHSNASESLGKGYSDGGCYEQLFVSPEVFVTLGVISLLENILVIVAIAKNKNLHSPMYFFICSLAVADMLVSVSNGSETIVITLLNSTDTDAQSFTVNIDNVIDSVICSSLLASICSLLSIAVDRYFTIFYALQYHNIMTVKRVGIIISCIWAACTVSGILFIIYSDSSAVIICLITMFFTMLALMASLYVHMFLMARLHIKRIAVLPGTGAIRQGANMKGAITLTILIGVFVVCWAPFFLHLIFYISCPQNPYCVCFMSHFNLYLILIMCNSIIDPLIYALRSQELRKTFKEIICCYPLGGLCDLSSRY

[26] = inhibitors of HIV Env-driven cell fusion, dose response, cherry-pick (AID 652057); format: functional, cell-based
[27] = ZM109 Env clade C HIV-1 fusion inhibitors, dose response, HeLa effector, CEM target cells, luciferase, cherry-pick (AID 652058); format: functional, cell-based
[28] = off-target signal loss in HeLa-CEM21 co-culture – HeLa F-luc CTL cells, cherry-picked, counter-screen for HIV-1 Env fusion inhibitor project, dose response (AID 652040); format: functional, cell-based;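 further: potency for signal decrease marking cytotoxic or nonspecific inhibition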

Sequence of NS3 (A3EZJ3 whole entry): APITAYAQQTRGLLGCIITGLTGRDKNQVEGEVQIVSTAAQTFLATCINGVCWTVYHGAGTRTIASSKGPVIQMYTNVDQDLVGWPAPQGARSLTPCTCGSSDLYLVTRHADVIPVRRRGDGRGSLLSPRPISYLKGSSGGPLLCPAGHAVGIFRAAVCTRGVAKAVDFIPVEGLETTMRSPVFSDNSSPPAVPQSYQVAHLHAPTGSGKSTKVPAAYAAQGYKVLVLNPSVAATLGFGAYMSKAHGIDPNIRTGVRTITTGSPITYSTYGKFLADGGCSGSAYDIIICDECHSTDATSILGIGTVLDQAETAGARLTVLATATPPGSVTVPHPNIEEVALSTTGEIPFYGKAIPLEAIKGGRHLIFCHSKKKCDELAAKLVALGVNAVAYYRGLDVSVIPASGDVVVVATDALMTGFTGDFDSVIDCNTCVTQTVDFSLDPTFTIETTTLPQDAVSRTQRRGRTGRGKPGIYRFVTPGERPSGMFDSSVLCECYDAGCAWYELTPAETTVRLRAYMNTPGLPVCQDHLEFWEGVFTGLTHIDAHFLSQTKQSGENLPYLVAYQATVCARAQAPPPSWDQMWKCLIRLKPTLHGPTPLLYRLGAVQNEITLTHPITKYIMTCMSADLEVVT

## Cc1ccc(C2CC(=O)N3CN(c4ccc(Br)cc4)CSC3=C2C#N)o1 (stereo not drawn)
[1]
  IC50: 9.58 µM (active)
[2]
  IC50: 7.09 µM (active)
[3]
  IC50: 14 µM (active)

## CCOC(=O)C1=C(Cc2ccc(F)cc2)C(=O)c2ccccc2C1=O
[4]
  IC50: > 66.6 µM (inactive)
[5]
  IC50: 11.4 µM (active)
[6]
  AC50: 13.4 µM (active)
[7]
  CC50: > 40 µM (active)
[8]
  IC50: 86.4 µM (active)

## Cn1c(CSc2nc3ccccc3s2)n[nH]c1=S
[9]
  IC50: > 100 µM (inactive)
[10]
  IC50: 4.35 µM (active)
[11]
  AC50: 1.82 µM (active)

## Cc1cccc(C(=O)Nc2cc(Cl)ccc2C(=O)O)c1
[12]
  IC50: 22.3 µM (active)

## O=C(COc1ccc(Cl)cc1)N/N=C/c1cccc2cccnc12
[4]
  IC50: > 66.6 µM (inactive)

## COc1ccc(N2Cc3cccc(C(=O)N4CCN(C(=O)c5ccco5)CC4)c3C2=O)cc1
[13]
  IC50: 9.8 µM (active)
[14]
  IC50: 5.99 µM (active)
[15]
  IC50: > 50 µM (not active)
[16]
  IC50: 3.1 µM (active)
[17]
  IC50: 1.43 µM (active)
[18]
  IC50: 10.2 µM (active)
[19]
  IC50: 4.24 µM (active)
[20]
  IC50: 9.04 µM (active)

## Nn1c(S)nnc1Cc1ccc(Br)cc1
[21]
  IC50: > 50 µM (not active)
[22]
  IC50: > 50 µM (not active)
[9]
  IC50: > 100 µM (inactive)
[10]
  IC50: 3.6 µM (active)

## O=C(Cn1sc2ccccc2c1=O)Nc1ccc(C(F)(F)F)cc1
[12]
  IC50: > 25 µM (inactive)

## OC(CNCCc1ccc(C(F)(F)F)cc1)COC(c1ccccc1)c1ccccc1 (stereo not drawn)
[23]
  IC50: 2.65 µM (active)
[24]
  CC50: 24.5 µM (active)
[25]
  EC50: > 89.2 µM (inactive)

## COc1ccc(CCN2C(=O)c3[nH]nc(-c4ccccc4O)c3C2c2cccc(O)c2)cc1OC (stereo not drawn)
[23]
  IC50: 2.7 µM (active)
[26]
  AC50: 2.44 µM (active)
[27]
  AC50: 8.34 µM (active)
[28]
  AC50: 17.6 µM (active)

Reference: ChEMBL document CHEMBL1201862, “PubChem BioAssay data set” (2004)
